Data reported in article PMC8954523 (Pharmaceutics, 2022).
Values after ≈ are worked out from the molar mass of the structure shown. Read-outs that look alike come from different tables or passages of the source.

Experiments:
[1] = Equilibrium solubility, shake-flask method; assay type: physicochemical; conditions: for solubility at 24 h: thermodynamic from solid, read-out: Solubility S2 × 10^6
Method: The standard shake-flask method was applied to determine solubility. The saturated solutions of the studied compound were obtained in glass screw-capped vials with the respective solvent, which were vigorously stirred in an air thermostat. The volumes of water, 1-octanol, n-hexane, and ethanol equaled 7, 2, 7, and 2 mL, respectively. […] After this time period, the saturated solutions stayed in the thermostat during the night, and then the non-dissolved substance was separated from the solution via centrifugation (Biofuge pico, Thermo Electron LED GmbH, Langenselbold, Germany) at the respective temperature for 20 min at 10,000 rpm. […] The experimental results were reported as an average of at least three replicated experiments with an accuracy of 2–4%.
The dissolution thermodynamic parameters on the standard state were determined using mole fraction unitary units. Recalculation of the molar solubility to the mole fraction was made as follows:(1) X2=M1S2/S2(M1−M2)+1000ρ, where S2 is the molar solubility of solute (M), M1 and M2 are the molar masses of solvent and solute, respectively, and ρ (g∙cm^−3) is the density of pure solvents. […] The density values of the pure solvents were used in calculations (Table S1).

[2] = cited from earlier work
[3] = Apparent distribution coefficient, n-hexane/water, isothermal shake-flask; assay type: physicochemical; conditions: 298.15 K
Method: The well-known isothermal shake-flask method was applied for the determination of the apparent distribution coefficients in the 1-octanol/water ( Dappoct/w ) and n-hexane/water ( Dapphex/w ) systems. The mutually saturated solvents were prepared by mixing water and organic phases for 24 h and settling and separating from each other. The stock solutions of the drug were made from 1-octanol saturated with water for the 1-octanol/water distribution, and n-hexane saturated with water for the n-hexane/water system. An aliquot of the stock solution was placed in a glass vial together with an aliquot of the respective phase and mixed for 24 h at five temperatures, from 293.15 to 313.15 K (±0.1 K). The concentrations of the compounds were determined spectrophotometrically (Shimadzu 1800, Kyoto, Japan) in a UV region, with an accuracy of 2–4%. The reported experimental values represent the average of at least four replicate experiments.
The apparent distribution coefficients were calculated from the molar concentrations of the substance in the phases using the following equation:(10) DCorg/w=C2org/w/C2w/org where DCorg/w is the apparent distribution coefficient, C2org/w and C2w/org are the concentrations (M) of the compound after the distribution in the 1-octanol or n-hexane and water phases, respectively. The apparent distribution coefficients in the mole fraction scale ( DXorg/w ) were calculated by the equation:(11) DXorg/w=X2org/w/X2w/org where X2org/w and X2w/org are the concentrations (mole fract.) of the compound after distribution. The standard Gibbs energy of the transfer ( ΔGtr0) from water to the organic phase was calculated as follows:(12) ΔGtr0=−RT(lnDXorg/w)

[4] = Hypothetical transfer thermodynamic functions from solvation functions; assay type: physicochemical; conditions: 298.15 K; for TΔStr / ΔGtr / ΔHtr / ΔStr / ζHtr / ζTStr: hypothetical
Method: The impact of the specific interactions on the solvation process was estimated by analyzing the thermodynamic functions of the hypothetical transfer from n-hexane—an inert solvent interacting with the drugs only non-specifically—to water, 1-octanol, and ethanol. Besides this, the hypothetic transfer from water to 1-octanol is significant as a model of the drug penetrating through the lipophilic biological membranes. The transferring thermodynamic parameters listed in Table 4 were calculated as a difference (taking into account the sign of the thermodynamic function) between the respective functions in a solvent (1-octanol/water/ethanol) and in n-hexane and between 1-octanol and water.
The relationship between the specific and non-specific solvation thermodynamic contributions was disclosed using the εH and εS parameters calculated as follows:(20) εH=(ΔHspec/ΔHnon−spec)⋅100%where ΔHspec=ΔHtr(n−hexane→solvent)and ΔHnon−spec=ΔHsolv(n−hexane) (21) εS=(ΔSspec/ΔSnon−spec)⋅100%where ΔSspec=ΔStr(n−hexane→solvent)and ΔSnon−spec=ΔSsolv(n−hexane)

Which results are given for `CC(O)(CS(=O)(=O)c1ccc(F)cc1)C(=O)Nc1ccc(C#N)c(C(F)(F)F)c1` (stereo not drawn) [BCL, bicalutamide]?
Solubility X2 × 10^4 ([1]; 1-octanol, 293.15 K): 2.23 mole fract.; Solubility X2 ([1]; 1-octanol, 298.15 K): 2.57 × 10^−4 mole fract.; Solubility X2 × 10^4 ([1]; 1-octanol, 298.15 K): 2.57 mole fract.; Solubility X2 × 10^4 ([1]; 1-octanol, 303.15 K): 3.00 mole fract.; Solubility X2 × 10^4 ([1]; 1-octanol, 308.15 K): 3.40 mole fract.; Solubility X2 × 10^4 ([1]; 1-octanol, 313.15 K): 3.95 mole fract.; Solubility X2 × 10^3 ([1]; ethanol, 293.15 K): 1.15 mole fract.; Solubility X2 ([1]; ethanol, 298.15 K): 1.42 × 10^−3 mole fract.; Solubility X2 × 10^3 ([1]; ethanol, 298.15 K): 1.42 mole fract.; X2 298.15 ([1]; ethanol, 298.15 K): 1.42 × 10^−3; Solubility X2 × 10^3 ([1]; ethanol, 303.15 K): 1.74 mole fract.; Solubility X2 × 10^3 ([1]; ethanol, 308.15 K): 2.11 mole fract.; Solubility X2 × 10^3 ([1]; ethanol, 313.15 K): 2.43 mole fract.; solubility in ethanol as compared to 1-octanol ([1]; mole fraction, 298.15 K): 5.5 fold; Solubility X2 × 10^6 ([1]; n-hexane, 293.15 K): 0.74 mole fract.; Solubility X2 ([1]; n-hexane, 298.15 K): 1.07 × 10^−6 mole fract.; Solubility X2 × 10^6 ([1]; n-hexane, 298.15 K): 1.07 mole fract.; X2 298.15 ([1]; n-hexane, 298.15 K): 1.07 × 10^−6; Solubility X2 × 10^6 ([1]; n-hexane, 303.15 K): 1.50 mole fract.; Solubility X2 × 10^6 ([1]; n-hexane, 308.15 K): 2.04 mole fract.; Solubility X2 × 10^6 ([1]; n-hexane, 313.15 K): 2.76 mole fract.; Solubility X2 × 10^6 ([1]; n-hexane, 318.15 K): 3.63 mole fract.; solubility at 24 h ([1]; n-hexane, organic solvent or mixture, n-hexane, 293.15 K): 5.67 µM (≈ 2.44 µg/mL); solubility at 24 h ([1]; n-hexane, organic solvent or mixture, n-hexane, 298.15 K): 8.12 µM (≈ 3.49 µg/mL); solubility at 24 h ([1]; n-hexane, organic solvent or mixture, n-hexane, 303.15 K): 11.3 µM (≈ 4.88 µg/mL); solubility at 24 h ([1]; n-hexane, organic solvent or mixture, n-hexane, 308.15 K): 15.3 µM (≈ 6.59 µg/mL); solubility at 24 h ([1]; n-hexane, organic solvent or mixture, n-hexane, 313.15 K): 20.5 µM (≈ 8.83 µg/mL); solubility at 24 h ([1]; n-hexane, organic solvent or mixture, n-hexane, 318.15 K): 26.8 µM (≈ 11.5 µg/mL); Solubility X2 × 10^7 ([1]; water, 293.15 K): 1.12 mole fract.; Solubility X2 ([1]; water, 298.15 K): 1.47 × 10^−7 mole fract.; Solubility X2 × 10^7 ([1]; water, 298.15 K): 1.47 mole fract.; X2 298.15 ([1]; water, 298.15 K): 1.47 × 10^−7; Solubility X2 × 10^7 ([1]; water, 303.15 K): 1.90 mole fract.; Solubility X2 × 10^7 ([1]; water, 308.15 K): 2.35 mole fract.; Solubility X2 × 10^7 ([1]; water, 313.15 K): 2.97 mole fract.; solubility at 24 h ([1]; water, water, 293.15 K): 6.24 µM (≈ 2.69 µg/mL); solubility at 24 h ([1]; water, water, 298.15 K): 8.14 µM (≈ 3.5 µg/mL); solubility at 24 h ([1]; water, water, 303.15 K): 10.5 µM (≈ 4.53 µg/mL); solubility at 24 h ([1]; water, water, 308.15 K): 12.9 µM (≈ 5.57 µg/mL); solubility at 24 h ([1]; water, water, 313.15 K): 16.4 µM (≈ 7.05 µg/mL); solubility ([2]; aqueous): less than 5 mg∙L^−1; aqueous solubility ([2]; ref 10): approximately 3.7 μg·mL^−1; aqueous solubility ([2]; ref 11): 8.85 µg/mL (≈ 20.6 µM); experimental over calculated distribution coefficient ([3]; n-hexane/water): 1.9 fold; DChex/w, experimental apparent distribution coefficient ([3]; n-hexane/water, molarity scale): 1.88 ± 0.04; DC/calchex/w, calculated distribution coefficient ([3]; ratio of molar solubilities in n-hexane and water): 1.00; εH ([4]; n-hexane → 1-octanol): 36.6%; εS ([4]; n-hexane → 1-octanol): 30.2%; TΔStr ([4]; n-hexane → 1-octanol): −13.9 kJ⋅mol^−1; ΔGtr ([4]; n-hexane → 1-octanol): −13.7 kJ⋅mol^−1; ΔHtr ([4]; n-hexane → 1-octanol): −27.6 kJ⋅mol^−1; ΔStr ([4]; n-hexane → 1-octanol): −46.6 J⋅mol^−1⋅K^−1; ζHtr ([4]; n-hexane → 1-octanol): 66.5%; ζTStr ([4]; n-hexane → 1-octanol): 33.5%; εS ([4]; n-hexane → ethanol): 5.0%; TΔStr ([4]; n-hexane → ethanol): −2.3 kJ⋅mol^−1; ΔGtr ([4]; n-hexane → ethanol): −18 kJ⋅mol^−1; ΔHtr ([4]; n-hexane → ethanol): −20.3 kJ⋅mol^−1; ΔStr ([4]; n-hexane → ethanol): −7.7 J⋅mol^−1⋅K^−1; ζHtr ([4]; n-hexane → ethanol): 89.8%; ζTStr ([4]; n-hexane → ethanol): 10.2%; εH ([4]; n-hexane → water): 16.4%; εS ([4]; n-hexane → water): 37.4%; TΔStr ([4]; n-hexane → water): −17.2 kJ⋅mol^−1; ΔGtr ([4]; n-hexane → water): 4.8 kJ⋅mol^−1; ΔHtr ([4]; n-hexane → water): −12.4 kJ⋅mol^−1; ΔStr ([4]; n-hexane → water): −57.7 J⋅mol^−1⋅K^−1; ζHtr ([4]; n-hexane → water): 41.9%; ζTStr ([4]; n-hexane → water): 58.1%; TΔStr ([4]; water → 1-octanol): 3.3 kJ⋅mol^−1; ΔGtr ([4]; water → 1-octanol): −18.5 kJ⋅mol^−1; ΔHtr ([4]; water → 1-octanol): −15.2 kJ⋅mol^−1; ΔStr ([4]; water → 1-octanol): 11.1 J⋅mol^−1⋅K^−1; ζHtr ([4]; water → 1-octanol): 82.2%; ζTStr ([4]; water → 1-octanol): 17.8%
